Experimental data as given in PubChem BioAssay (NCI).
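Cultured in 96-well plates, cells were exposed to test compound for 48 hours across five concentrations. GI50 is the concentration that inhibits growth by half. At the TGI there is no net growth.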

How the values were obtained:
Experiment in all cases: NCI tumour cell line growth inhibition, 48 h
[1] = system: DMS 273 small cell lung
[2] = system: KM20L2 colon
[3] = system: M19-MEL melanoma
[4] = system: SNB-78 CNS
[5] = system: XF 498 CNS
[6] = system: BT-549 breast
[7] = system: NCI/ADR-RES ovarian
[8] = system: RXF-631 renal
[9] = system: MDA-N

| SMILES | TGI [1] | TGI [2] | TGI [3] | GI50 [6] | TGI [6] | GI50 [7] | TGI [7] | other results |
| --- | --- | --- | --- | --- | --- | --- | --- | --- |
| COc1ccc(OC)c2cc(C3(C)SCCCS3)ccc12 | > 100 µM | > 100 µM | > 100 µM |  |  |  |  | TGI [4]: > 100 µM; TGI [5]: > 100 µM |
| O=C1/C(=C/C(Cl)=C/c2ccccc2)SC(=S)N1CCc1ccc(O)cc1 |  |  |  | 3.44 µM | > 100 µM | 2.16 µM | > 100 µM |  |
| O=C1/C(=C/c2ccc(Cl)cc2)CN(C(=O)C(Cl)Cl)C/C1=C\c1ccc(Cl)cc1 |  |  |  | 0.259 µM | 0.765 µM | 0.358 µM | > 32.9 µM |  |
| C=CCN(N=O)C(=O)N(CCC)CCCCC(NC(C)=O)C(=O)NCc1ccccc1 (configuration not stated) | > 100 µM | > 100 µM | > 100 µM |  |  |  |  | TGI [8]: > 100 µM; TGI [5]: > 100 µM |
| CSC(=S)NNC(=O)c1ccncc1 | 46.1 µM | > 100 µM | 35.8 µM |  |  |  |  | TGI [8]: > 100 µM; TGI [4]: > 100 µM; TGI [5]: 50 µM |
| COC(=O)C#Cc1ccc([N+](=O)[O-])cc1 |  |  |  |  | 3.34 µM |  | 21.8 µM | TGI [9]: 8.27 µM |
| COc1cnc2c(c1)C(=O)c1c-2n(CCCN2CCN(C)CC2)c(=O)c2cc(Cl)ccc12 |  |  |  |  |  | 0.979 µM | 24.5 µM |  |
| O=C(C=Nc1ccccc1C(=O)[O-])c1cccs1.O=C(C=Nc1ccccc1C(=O)[O-])c1cccs1.[Cu+2] |  | > 100 µM | > 100 µM |  |  |  |  | GI50 [3]: 39.7 µM |
| COC(=O)C1=CC2OC1(C)C1(CC1)C2=O (configuration not stated) |  | 36.6 µM | 51.7 µM |  |  |  |  | TGI [5]: 28.1 µM |
| Clc1ccc(CO/N=C(\Cn2ccnc2)c2ccc(Cl)cc2Cl)c(Cl)c1 |  |  |  | 1.97 µM | 3.61 µM | 1.27 µM | 2.9 µM |  |
| Cn1cnc2c(NCc3ccccc3)nc(NCCO)nc21 |  |  |  | 147 µM | > 454 µM |  | 319 µM |  |
| Cc1ccc(NC(=O)c2ccnc(N3CCCC3)c2)cc1-c1ccc(C(=O)NCC2CC2)cc1 |  |  |  | > 25 µM | > 25 µM | > 25 µM | > 25 µM |  |
| Cc1ccc2[nH]c(=O)c(C(C#N)c3ccccc3)nc2c1 (configuration not stated) | > 100 µM | 92.3 µM |  |  |  |  |  | TGI [8]: > 100 µM; TGI [4]: 80.1 µM |
| Cc1ccc(C(=O)NC2CCCCC2)cc1-c1ccc(C(=O)NCC2CC2)cc1 |  |  |  | > 22.6 µM | > 25 µM | 24.6 µM | > 25 µM |  |
| CO[C@H]1CC[C@@]2(C)C(=CC[C@H]3[C@@H]4C[C@H](O)C[C@@]4(C)CC[C@@H]32)C1 |  |  |  | 7.38 µM | 22.8 µM | 4.17 µM | 39.9 µM |  |
| COC(=O)N/N=C(\C)C(CN1CCOCC1)C(c1ccccc1)c1cc2ccccc2oc1=O (configuration not stated) |  |  |  |  | > 100 µM |  | > 100 µM |  |
| COC(=O)Nc1nc2ccc(Oc3ccc(NC(=O)Nc4cccc(Cl)c4)cc3)cc2[nH]1 |  |  |  | 5.87 µM | > 21.8 µM | 5.17 µM | > 25 µM |  |
| COC(=O)C(=O)C(C(=O)C(=O)Nc1cc([N+](=O)[O-])ccc1[N+](=O)[O-])c1nc2ccc(C(=O)c3ccccc3)cc2[nH]c1=O (configuration not stated) | > 100 µM |  | > 100 µM |  |  |  |  | TGI [8]: > 100 µM; TGI [4]: 58.6 µM; TGI [5]: 30.9 µM |

| SMILES | TGI [1] | TGI [2] | TGI [3] | GI50 [6] | TGI [6] | GI50 [7] | TGI [7] | other results |
| --- | --- | --- | --- | --- | --- | --- | --- | --- |
| COc1ccc(-c2nc(-c3nc4cc(C)c(C)cc4[nH]3)cc3c2[nH]c2ccccc23)cc1 |  |  |  | 2.96 µM | 8.21 µM | 6.37 µM | > 100 µM |  |
| COc1ccccc1NC(=O)C1=C(C)NC(C)=C(C(=O)Nc2ccccc2OC)C1c1ccccc1OC | > 100 µM | > 100 µM | > 100 µM |  |  |  |  | TGI [8]: > 100 µM; TGI [4]: > 100 µM |
| CC1OC(O)CC(OC(=O)c2ccccc2)C1OC(=O)c1ccccc1 (configuration not stated) | 29.5 µM | > 100 µM | 31.6 µM |  |  |  |  | TGI [5]: 34.6 µM |
| COc1cc2c(cc1OC)[C@@]1(C)C(=O)c3cc4c(cc3[C@H]1N(C)C2=O)OCO4 |  |  |  | 29 µM | > 100 µM | 59.6 µM | > 100 µM |  |
| CC1(C)C2CCC13C(=O)C1OC3(C2)C2C(=O)c3c(O)ccc(O)c3C(=O)C12 (configuration not stated) |  |  |  | > 70.3 µM | > 92.2 µM | 17.5 µM | 59.1 µM |  |
| COC(=O)c1c2c(c(C)[n+]([O-])c1C)C(=O)C(NCc1ccc(F)c(F)c1)=CC2=O |  |  |  | 2.14 µM | 5.86 µM | 2.3 µM | 6.86 µM |  |
| CC12CC3CC(C)(C1)CC(N=[N+]=[N-])(C3)C2 | > 100 µM |  | > 100 µM |  |  |  |  | TGI [4]: > 100 µM; TGI [5]: > 100 µM |
| Cc1cccc(N=C2c3cc([N+](=O)[O-])ccc3-c3c2cc([N+](=O)[O-])cc3[N+](=O)[O-])c1 |  |  |  | 3.45 µM | 11.2 µM | 12.5 µM | > 100 µM |  |
| CCOC(=O)C1=C(C)N(NC(=O)c2ccccc2)C2(O)CCCC12C(=O)OCC (configuration not stated) | > 100 µM | > 100 µM | > 100 µM |  |  |  |  | TGI [8]: > 100 µM; TGI [5]: > 100 µM |
| NC(=O)Oc1cc(OC(N)=O)cc(N(CCCl)CCCl)c1 |  |  |  | 7.93 µM | 30.7 µM | 5.45 µM | > 100 µM |  |
| CCC[CH2][Sn]([CH2]CCC)([S]C1=NCCS1)[S]C1=NCCS1 | 2.27 µM | 2.88 µM | 1.45 µM |  |  |  |  | GI50 [1]: 0.705 µM; GI50 [2]: 1.35 µM; GI50 [3]: 0.268 µM; GI50 [4]: 0.124 µM; TGI [4]: 0.946 µM; GI50 [5]: 0.159 µM; TGI [5]: 0.678 µM |
| CC(C)(O)[C@H]1[C@@H]2OC(=O)[C@H]1[C@]1(O)C[C@H]3OC34C(=O)O[C@H]2[C@@]41C (some centres not stated) (tested in a mixture with another compound) |  |  |  |  | > 100 µM |  |  | TGI [9]: > 100 µM |
| O=C(O)c1cccc(CC(Br)C(=O)O)c1 (configuration not stated) |  |  |  |  | > 100 µM |  | > 100 µM | TGI [9]: > 100 µM |
| COC(=O)C1C(=O)O[C@@H](c2ccc(OC)cc2OC)C1C(=O)OC (some centres not stated) | > 100 µM | > 100 µM | > 100 µM |  |  |  |  | TGI [4]: > 100 µM; TGI [5]: > 100 µM |
| C/C(=C\c1c[nH]c2ccccc12)[N+](=O)[O-] |  |  |  | 11 µM | 24 µM | 6.23 µM | 19.7 µM |  |
| COc1cc(C(=O)n2nc(N3CCN(C)CC3)c3cc(N)ccc32)cc(OC)c1OC |  |  |  | 4.32 µM | > 100 µM | 4.2 µM | > 100 µM |  |
| C/C(=C\c1ccn(-c2ccc(N)cc2)n1)[C@@H]1C[C@@H]2O[C@]2(C)CCC[C@H](C)[C@H](O)[C@@H](C)C(=O)C(C)(C)[C@@H](O)CC(=O)O1 |  |  |  | 0.138 µM | > 50 µM | 0.106 µM |  |  |
